# Measured values reported in patent US11525835B2, “Compounds and methods for use in detecting gabapentin” (Ark Diagnostics, Inc., priority 2007, dated 2022).
# Test system: Rabbit polyclonal antibody #10930
# Assay: Specificity of the immunoassay (cross-reactivity of antibody with other antiepileptic drugs)
# Type: binding
# Details: assayed in duplicate, Cobas Mira
# Text: Antibodies obtained using any of the disclosed techniques are screened or purified not only for their ability to react with gabapentin, but for a low cross-reactivity with potential interfering substances. “Cross-reactivity” may be determined in a quantitative immunoassay by establishing a standard curve using known dilutions of the target analyte, gabapentin. The standard curve is then used to calculate the apparent concentration of the interfering substance present in various known amounts in samples assayed under similar condition. The cross-reactivity is the apparent concentration divided by the actual concentration multiplied by 100. An exemplary immunoassay for determining cross-reactivity is a homogeneous enzyme immunoassay using a wild type G6PDH as described in U.S. Pat. No. 3,817,837 or mutant G6PDH engineered to contain a cysteine per subunit as described in U.S. Pat. Nos. 6,033,890, 6,090,567 and 6,455,288. Furthermore, the cross-reactivity can be determined in the same type of immunoassay in which the antibody will ultimately be used.
# The gabapentin antibodies and enzyme conjugates may be advantageously used in a homogeneous assay format to detect gabapentin in samples. An analyzer (instrument) useful to set up the assay is Roche Cobas Mira (Roche Diagnostics). Gabapentin containing sample is incubated with antibody reagent followed by the addition of the enzyme conjugate reagent. The enzyme conjugate activity decreases upon binding to the antibody. The enzyme conjugate, which is not bound to the antibody, catalyzes the oxidation of glucose 6-phosphate (G6P). The oxidation of G6P is coupled with the reduction of NAD^+ to NADH, which can be measured at 340 nm. The change in the absorbance at 340 nm can be measured spectrophotometrically. The gabapentin concentration in a specimen can be measured in terms of G6PDH activity. The increase in the rate at 340 nm is due to the formation of NADH and is proportional to the enzyme conjugate activity. An assay curve is generated (FIG. 6) using gabapentin spiked into negative calibrator matrix. The assay rate increases with increasing the concentration of free drug in the sample.
# The specificity of the immunoassay was evaluated by adding potentially crossreactant drugs to human serum and determining the increase in the apparent concentration as a result of the presence of crossreactant. Separate stock solutions of gabapentin were prepared by dissolving the drug in methanol to give a stock solution of 1000 μg/mL. […] Each sample was assayed in duplicate. Testing was performed on the Cobas Mira Analyzer®. The percentage concentration above 5 μg/mL of gabapentin was calculated for each crossreactant.
# [1] = AED at 100 μg/mL in human serum
Structure (SMILES),Percent Increase in Apparent Gabapentin [1] [%],Percent Increase in Apparent Gabapentin (AED at 50 μg/mL in human serum) [%]
NC(=O)N1c2ccccc2C=Cc2ccccc21 [Carbamazepine],0,–
Nc1nnc(-c2cccc(Cl)c2Cl)c(N)n1 [Lamotrigine],0,–
CC[C@@H](C(N)=O)N1CCCC1=O [Levetiracetam],0,–
CCCC(CCC)C(=O)O [Valproic Acid],0,–
NS(=O)(=O)Cc1noc2ccccc12 [Zonisamide],–,0
